Measured values as given in publication PMC6627609, “Targeting Quorum Sensing: High-Throughput Screening to Identify Novel LsrK Inhibitors” (International Journal of Molecular Sciences, 2019).
Where a name gives a salt, the structure may show the parent alone.

Target: LsrK (Salmonella typhimurium, UniProt Q8ZKQ6)
Assay: biochemical
Type: biochemical, S. typhimurium
Details: for Inhibition (%): 50 µM

Sequence of LsrK (Q8ZKQ6 whole entry): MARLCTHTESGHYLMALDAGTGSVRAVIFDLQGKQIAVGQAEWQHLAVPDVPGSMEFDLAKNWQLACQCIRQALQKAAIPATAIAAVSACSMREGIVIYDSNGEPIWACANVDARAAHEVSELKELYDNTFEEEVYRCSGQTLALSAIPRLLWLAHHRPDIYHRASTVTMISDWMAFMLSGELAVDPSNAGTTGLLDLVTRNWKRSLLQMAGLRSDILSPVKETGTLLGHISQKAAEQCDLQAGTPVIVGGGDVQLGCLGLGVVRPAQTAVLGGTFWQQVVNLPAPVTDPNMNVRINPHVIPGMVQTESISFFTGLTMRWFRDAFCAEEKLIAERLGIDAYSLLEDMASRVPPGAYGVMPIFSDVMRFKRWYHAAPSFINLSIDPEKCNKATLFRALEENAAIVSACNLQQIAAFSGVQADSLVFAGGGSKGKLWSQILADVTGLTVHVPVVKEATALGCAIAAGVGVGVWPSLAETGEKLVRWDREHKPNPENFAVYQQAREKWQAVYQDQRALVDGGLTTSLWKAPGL

Compound COc1ccc(-c2oc3c(CC=C(C)C)c(O[C@@H]4O[C@H](CO)[C@@H](O)[C@H](O)[C@H]4O)cc(O)c3c(=O)c2O[C@@H]2O[C@@H](C)[C@H](O)[C@@H](O)[C@H]2O)cc1 [ICARIIN] has an inhibition at 50 µM of 36%.

For CCC(Cc1c(I)cc(I)c(N)c1I)C(=O)O (centres unmarked) [IOPANIC ACID], the “Inhibition (%)” value was 16.

Compound CC(C)[N+]1(C)[C@@H]2CC[C@H]1C[C@@H](OC(=O)C(CO)c1ccccc1)C2 (some centres unmarked) [IPRATROPIUM BROMIDE] has an inhibition at 50 µM of 0%.

In the case of CC(C)Oc1ccc2c(=O)c(-c3ccccc3)coc2c1 [IPRIFLAVONE], the inhibition at 50 µM is reported as 2%.

In the case of CCCCC1=NC2(CCCC2)C(=O)N1Cc1ccc(-c2ccccc2-c2nnn[nH]2)cc1 [IRBESARTAN], the inhibition at 50 µM is reported as 10%.

Work on COc1c(O)cc(O)cc1O [IRETOL] yielded an inhibition at 50 µM of 1%.

COc1cc(-c2coc3cc(O[C@@H]4O[C@H](CO)[C@@H](O)[C@H](O)[C@H]4O)c(OC)c(O)c3c2=O)cc(O)c1OC [IRIDIN] showed an inhibition at 50 µM of 1%.

With COc1cc(-c2coc3cc(OCc4ccccc4)c(OC)c(O)c3c2=O)cc(O)c1OC [IRIGENIN. 7-BENZYL ETHER] the “Inhibition (%)” value was 2.

Work on O=c1c(-c2cc(O)c(O)c(O)c2)coc2cc(O)c(O)c(O)c12 [IRIGENOL] yielded an inhibition at 50 µM of 90%.

CC(=O)Oc1cc(-c2coc3cc(OC(C)=O)c(OC(C)=O)c(OC(C)=O)c3c2=O)cc(OC(C)=O)c1OC(C)=O [IRIGINOL HEXAACEATATE] gave an inhibition at 50 µM of 114%.

For CC(C)Nc1ncccn1 [ISAXONINE], the inhibition at 50 µM was 0%.

CCC(NC(C)C)C(O)c1ccc(O)c(O)c1 (centres unmarked) [ISOETHARINE MESYLATE] was tested, and the inhibition at 50 µM was 2%.

C=C1CCC2C(CC2(C)C)C(=O)CCC1O (centres unmarked) [ISOKOBUSONE] gave an inhibition at 50 µM of 3%.

C/C=C/c1ccc2c(c1)OCO2 [ISOSAFROLE] gave an inhibition at 50 µM of 1%.

Work on O=[N+]([O-])O[C@@H]1CO[C@H]2[C@@H]1OC[C@@H]2O [ISOSORBIDE MONONITRATE] yielded an inhibition at 50 µM of 0%.

In the case of CC1=C(/C=C/C(C)=C/C=C/C(C)=C\C(=O)O)C(C)(C)CCC1 [ISOTRETINON], the “Inhibition (%)” value is reported as 1.

In the case of CC(COc1ccccc1)NC(C)C(O)c1ccc(O)cc1 (centres unmarked) [ISOXSUPRINE HYDROCHLORIDE], the inhibition at 50 µM is reported as 2%.

Work on O=C(O)/C=C/C=C/c1ccccc1 [JUAREZIC ACID] yielded an inhibition at 50 µM of 1%.

With O=C1C=CC(=O)c2c(O)cccc21 [JUGLONE] the inhibition at 50 µM was 88%.

O=c1c(O)c(-c2ccc(O)cc2)oc2cc(O)cc(O)c12 [KAEMPFEROL] showed an inhibition at 50 µM of 0%.

In the case of C[C@H]1O[C@H](OC2[C@@H](O)[C@@H](O)C(O)[C@H](O)[C@H]2O)[C@@H](N)C[C@@H]1N=C(N)C(=O)O.Cl (some centres unmarked) [KASUGAMYCIN HYDROCHLORIDE], the “Inhibition (%)” value is reported as 1.

COC1=CC(=O)O[C@@H](/C=C/c2ccccc2)C1 [KAWAIN] was tested, and the inhibition at 50 µM was 0%.

With O=C(c1ccccc1)c1ccc2n1CCC2C(=O)O (centres unmarked) [KETOROLAC TROMETHAMINE] the inhibition at 50 µM was 0%.

Compound CN1CCC(=C2c3ccccc3CC(=O)c3sccc32)CC1 [KETOTIFEN FUMARATE] has an inhibition at 50 µM of 1%.

OC[C@H]1O[C@@H](n2cnc3c(NCc4ccco4)ncnc32)[C@H](O)[C@@H]1O [KINETIN RIBOSIDE] showed an inhibition at 50 µM of 0%.

In the case of CC1(C)C[C@@H]2C(=O)CC[C@H]3O[C@]3(C)CC[C@H]21 [KOBUSONE], the inhibition at 50 µM is reported as 1%.

COc1ccc(-c2coc3cc(O)ccc3c2=O)c(O)c1O [KOPARIN] gave an inhibition at 50 µM of 118%.

With CCCCS(=N)(=O)CCC(N)C(=O)O [L-BUTHIONINE SULFOXIMINE] the “Inhibition (%)” value was 20.

For CC(=O)O[C@H]1CC[C@]2(C)C3=C(CC[C@H]2C1(C)C)[C@]1(C)CC[C@H]([C@H](C)CCC=C(C)C)[C@@]1(C)CC3 [LANOSTEROL ACETATE], the “Inhibition (%)” value was 1.

In the case of Cc1c(OCC(F)(F)F)ccnc1C[S+]([O-])c1nc2ccccc2[nH]1 (centres unmarked) [LANSOPRAZOLE], the inhibition at 50 µM is reported as 33%.

In the case of CC(C)=CCC1=C(O)C(=O)c2ccccc2C1=O [LAPACHOL], the inhibition at 50 µM is reported as 1%.

Cc1occc(=O)c1O [LARIXINIC ACID] was tested, and the “Inhibition (%)” value was 1.

For C=C[C@@](C)(O)CC[C@H]1C(=C)C[C@H](OC(C)=O)[C@H]2C(C)(C)CCC[C@]12C [LARIXOL ACETATE], the “Inhibition (%)” value was 3.

With C=C[C@@](C)(O)CC[C@H]1C(=C)C[C@H](O)[C@H]2C(C)(C)CCC[C@]12C [LARIXOL] the “Inhibition (%)” value was 1.

Cc1cc(OC(=O)c2c(C)cc(O)cc2O)cc(O)c1C(=O)O [LECANORIC ACID] gave an inhibition at 50 µM of 0%.

For COC(=O)c1c(C)c2c(c(C)c1O)OC(=O)c1c(C)c(Cl)c(O)c(Cl)c1O2 [LEOIDIN], the inhibition at 50 µM was 83%.

In the case of Nc1nc2c(c(=O)[nH]1)N(C=O)C(CNc1ccc(C(=O)N[C@@H](CCC(=O)O)C(=O)O)cc1)CN2 (some centres unmarked) [LEUCOVORIN CALCIUM], the inhibition at 50 µM is reported as 5%.

CC(C)(C)NC[C@H](O)c1ccc(O)c(CO)c1 [LEVALBUTEROL HYDROCHLORIDE] was tested, and the inhibition at 50 µM was 8%.

Work on c1ccc([C@H]2CN3CCSC3=N2)cc1 [LEVAMISOLE HYDROCHLORIDE] yielded an inhibition at 50 µM of 1%.

With N[C@@H](Cc1ccc(O)c(O)c1)C(=O)O [LEVODOPA] the inhibition at 50 µM was 77%.

C[C@H](N)[C@H](O)c1ccc(O)c(O)c1 [LEVONORDEFRIN] gave an inhibition at 50 µM of 123%.

Compound CCC[C@@H]1C[C@@H](C(=O)N[C@@H]([C@H]2O[C@H](SC)[C@H](O)[C@@H](O)[C@H]2O)[C@@H](C)O)N(C)C1 [LINCOMYCIN HYDROCHLORIDE] has an inhibition at 50 µM of 0%.

Work on CCCCCc1c2c(cc(O)c1C(=O)O)OC(=O)c1c(cc(OC)cc1C(=O)CCCC)O2 [LOBARIC ACID] yielded an inhibition at 50 µM of 98%.

CN1[C@@H](CC(=O)c2ccccc2)CCC[C@H]1C[C@H](O)c1ccccc1 [LOBELINE HYDROCHLORIDE] was tested, and the inhibition at 50 µM was 1%.

For CCn1cc(C(=O)O)c(=O)c2cc(F)c(N3CCNC(C)C3)c(F)c21 (centres unmarked) [LOMEFLOXACIN HYDROCHLORIDE], the inhibition at 50 µM was 0%.

CCOC(=O)N1CCC(=C2c3ccc(Cl)cc3CCc3cccnc32)CC1 [LORATADINE] was tested, and the inhibition at 50 µM was 2%.

O=C(NC(=O)c1c(F)cccc1F)Nc1cc(Cl)c(OC(F)(F)C(F)C(F)(F)F)cc1Cl (centres unmarked) [LUFENURON] showed an inhibition at 50 µM of 2%.

In the case of O=C(O)CCC1NCC2CC1CN1CCCCC21 (centres unmarked) [LUPANYL ACID HYDROCHLORIDE], the inhibition at 50 µM is reported as 1%.

With NCc1ccc(S(N)(=O)=O)cc1 [MAFENIDE HYDROCHLORIDE] the inhibition at 50 µM was 1%.

Work on O=c1c2cc(O)c(O)cc2oc2cc(O)c([C@@H]3O[C@H](CO)[C@@H](O)[C@H](O)[C@H]3O)c(O)c12 [MANGIFERIN] yielded an inhibition at 50 µM of 14%.

COC(=O)Nc1nc2ccc(C(=O)c3ccccc3)cc2[nH]1 [MEBENDAZOLE] gave an inhibition at 50 µM of 1%.

Work on CCN(CCCCOC(=O)c1ccc(OC)c(OC)c1)C(C)Cc1ccc(OC)cc1 (centres unmarked) [MEBEVERINE HYDROCHLORIDE] yielded an inhibition at 50 µM of 1%.

Cc1ccc(Cl)c(Nc2ccccc2C(=O)O)c1Cl [MECLOFENAMATE SODIUM] showed an inhibition at 50 µM of 6%.

COC(=O)C(N)CS (centres unmarked) [MECYSTEINE HYDROCHLORIDE] was tested, and the inhibition at 50 µM was 112%.

CC(=O)O[C@]1(C(C)=O)CC[C@H]2[C@@H]3C[C@H](C)C4=CC(=O)CC[C@]4(C)[C@H]3CC[C@@]21C [MEDROXYPROGESTERONE ACETATE] was tested, and the inhibition at 50 µM was 1%.

For Cc1cccc(Nc2ccccc2C(=O)O)c1C [MEFENAMIC ACID], the inhibition at 50 µM was 1%.

OC(c1cc(C(F)(F)F)nc2c(C(F)(F)F)cccc12)C1CCCCN1 (centres unmarked) [MEFLOQUINE] showed an inhibition at 50 µM of 32%.

Work on CNC[C@H](O)[C@@H](O)[C@H](O)[C@H](O)CO [MEGLUMINE] yielded an inhibition at 50 µM of 1%.

COc1ccc2[nH]cc(CCNC(C)=O)c2c1 [MELATONIN] showed an inhibition at 50 µM of 1%.
